Literature values as cited in US8728545B2, “Extraction method for providing an organic certifiable Stevia rebaudiana extract” (Justbio Inc., priority 2010, dated 2014).
Peptide text beside a SMILES is read from it.

Assays:
[1] = in water; Crammer and Ikan, 1986
[2] = for Sweetness compared to sucrose: principal steviol glycosides found in stevia leaves; for Relative sweetness among steviol glycosides (in words): comparison between glycosides, Crammer and Ikan 1986, 1987

Compound	Sweetness in Sucrose Equivalence (% SE) [1] [% SE]	Sweetness compared to sucrose [2]	Relative sweetness among steviol glycosides (in words) [2]
CC1=CC(=O)[N-]S(=O)(=O)O1.[K+] [Acesulfame-K]	11.6		
COC(=O)[C@H](Cc1ccccc1)NC(=O)[C@@H](N)CC(=O)O [Aspartame] (H-Asp-Phe-OMe)	16.0		
O=S(=O)([O-])NC1CCCCC1.[Na+] [Cyclamate-Na]	15.2		
C=C1C[C@@]23CC[C@H]4[C@@](C)(CCC[C@@]4(C)C(=O)O[C@@H]4O[C@H](CO)[C@@H](O)[C@H](O)[C@H]4O)[C@@H]2CC[C@]1(O[C@@H]1O[C@H](CO)[C@@H](O)[C@H](O)[C@H]1O[C@@H]1O[C@@H](C)[C@H](O)[C@@H](O)[C@H]1O)C3 [Dulcoside A]		50-120 fold	
CC1(C)[C@@H](O[C@H]2O[C@H](C(=O)O)[C@@H](O)[C@H](O)[C@H]2O[C@@H]2O[C@H](C(=O)O)[C@@H](O)[C@H](O)[C@H]2O)CC[C@]2(C)[C@H]3C(=O)C=C4[C@@H]5C[C@@](C)(C(=O)O)CC[C@]5(C)CC[C@@]4(C)[C@]3(C)CC[C@@H]12.N [Monoammonium Glycyrhisinate]	7.3		
COc1ccc(CCC(=O)c2c(O)cc(O[C@@H]3O[C@H](CO)[C@@H](O)[C@H](O)[C@H]3O[C@@H]3O[C@@H](C)[C@H](O)[C@@H](O)[C@H]3O)cc2O)cc1O [Neohesperidin Didydrochalcone]	9.8		
COC(=O)[C@H](Cc1ccccc1)NC(=O)[C@H](CC(=O)O)NCCC(C)(C)C [Neotame]	15.1		
C=C1C[C@@]23CC[C@H]4[C@@](C)(CCC[C@@]4(C)C(=O)O[C@@H]4O[C@H](CO)[C@@H](O)[C@H](O)[C@H]4O)[C@@H]2CC[C@]1(O[C@@H]1O[C@H](CO)[C@@H](O)[C@H](O[C@@H]2O[C@H](CO)[C@@H](O)[C@H](O)[C@H]2O)[C@H]1O[C@@H]1O[C@H](CO)[C@@H](O)[C@H](O)[C@H]1O)C3 [Rebaudioside A]		250-450 fold	the sweetest
C=C1C[C@@]23CC[C@H]4[C@@](C)(CCC[C@@]4(C)C(=O)O[C@@H]4O[C@H](CO)[C@@H](O)[C@H](O)[C@H]4O[C@@H]4O[C@H](CO)[C@@H](O)[C@H](O)[C@H]4O)[C@@H]2CC[C@]1(O[C@@H]1O[C@H](CO)[C@@H](O)[C@H](O[C@@H]2O[C@H](CO)[C@@H](O)[C@H](O)[C@H]2O)[C@H]1O[C@@H]1O[C@H](CO)[C@@H](O)[C@H](O)[C@H]1O)C3 [Rebaudioside D]	10.1	240-450 fold	as sweet as rebaudioside A
C=C1C[C@@]23CC[C@H]4[C@@](C)(CCC[C@@]4(C)C(=O)O[C@@H]4O[C@H](CO)[C@@H](O)[C@H](O)[C@H]4O[C@@H]4O[C@H](CO)[C@@H](O)[C@H](O)[C@H]4O)[C@@H]2CC[C@]1(O[C@@H]1O[C@H](CO)[C@@H](O)[C@H](O)[C@H]1O[C@@H]1O[C@H](CO)[C@@H](O)[C@H](O)[C@H]1O)C3 [Rebaudioside E]		150-300 fold	as sweet as stevioside
O=C1[N-]S(=O)(=O)c2ccccc21.[Na+] [Saccharin-Na]	10.1		
C=C1C[C@@]23CC[C@H]4[C@@](C)(CCC[C@@]4(C)C(=O)[O-])[C@@H]2CC[C@]1(O[C@@H]1O[C@@H](CO)[C@@H](O)[C@H](O)[C@@H]1O[C@@H]1O[C@@H](CO)[C@@H](O)[C@H](O)[C@@H]1O)C3.[Na+] [Steviobioside]		100-125 fold	
C=C1C[C@@]23CC[C@H]4[C@@](C)(CCC[C@@]4(C)C(=O)O[C@@H]4O[C@H](CO)[C@@H](O)[C@H](O)[C@H]4O)[C@@H]2CC[C@]1(O[C@@H]1O[C@H](CO)[C@@H](O)[C@H](O)[C@H]1O[C@@H]1O[C@H](CO)[C@@H](O)[C@H](O)[C@H]1O)C3 [Stevioside]		300 fold	
OC[C@H]1O[C@H](O[C@]2(CCl)O[C@H](CCl)[C@@H](O)[C@@H]2O)[C@H](O)[C@@H](O)[C@H]1Cl [Sucralose]	13.0		
Rebaudioside B		300-350 fold	
Rebaudioside C		50-120 fold	
